Patent publication US20160083420A1, “DERIVATIVES OF DOLASTATIN 10 AND AURISTATINS” (PIERRE FABRE MEDICAMENT, priority 2013, published 2016)
Square brackets hold non-standard residues; d marks the D form. Peptide text beside a SMILES is read from it. * marks the point of attachment. Dolaproine = CO[C@@H]([C@@H]1CCCN1)[C@@H](C)C(=O)O; Dil = CC[C@H](C)[C@H](NC)[C@@H](CC(=O)O)OC; X5 = CC(C)[C@@H](C(=O)*)N(C)Cc1ccncc1

Test system: MDA-MB-231 (breast adenocarcinoma—ATCC HTB-26)
Assay: ATPlite antiproliferative assay on MDA-MB-231 cells
Type: cell-based
Details: Homo sapiens, MDA-MB-231, 72 h, MDA-MB-231, 72 h drug treatment, values in text, read-out: EC50, antiproliferative activity on the MDA-MB-231 cell line
Experimental: A549 (Non Small Cell Lung Cancer—ATCC CCL-185) and MDA-MB-231 (breast adenocarcinoma—ATCC HTB-26) cells were cultured in Minimum Essential Medium Eagle (MEM) with 5% fetal calf serum (FCS) and Dulbecco's modified Eagle Medium (DMEM) with 10% FCS respectively. MCF7 (breast ductal carcinoma—ATCC HTB-22) and SN-12C (kidney carcinoma—ATCC) cells were maintained in RPMI1640 medium (without phenol red for MCF7 cells) containing 10% FCS. All the media were supplemented with fungizone (1.25 μg/mL) and penicillin-streptomycin (100 U/100 μg/mL). Cells were cultured under standard conditions in an incubator at 37° C., 5% CO2 and 95% atmospheric humidity.
Compounds according to the invention were investigated for their antiproliferative activity using an ATPlite proliferation assay (Perkin Elmer, Villebon sur Yvette, France) on a comprehensive panel of 4 cell lines. […] On day 4, cell viability was evaluated by dosing the ATP released by viable cells. The number of viable cells was analyzed in comparison with the number of solvent treated cells. The EC50 values were determined with curve fitting analysis (non linear regression model with a sigmoidal dose response, variable hill slope coefficient), performed with the algorithm provided by the GraphPad Software (GraphPad Software Inc., CA, USA).

With `CC[C@H](C)[C@@H]([C@@H](CC(=O)N1CCC[C@H]1[C@H](OC)[C@@H](C)C(=O)N[C@@H](Cc1ccccc1)C(=O)OC)OC)N(C)C(=O)[C@@H](NC(=O)[C@H](C(C)C)N(C)Cc1ccncc1)C(C)C` [Example 3] (X5-V[Dil][Dolaproine]F-OMe) the EC50 was 0.41 nM.
